A short description of data set [1]: Cytotoxic concentration for 50% growth inhibition of uninfected BHK cells. The format is cell-based, Mesocricetus auratus. Particulars: hamster.
The subject of another data set is Sindbis virus. As to the kind of experiment: Effective concentration resulting in a 50% reduction in virus production in BHK cells. The format is functional, organism-based.

Consider `OC[C@@H]1COCCO1`, for which the CC50 (commonly the concentration at which the toxic effect on the cells reaches its halfway point) in data set [1] is more than 1000 µM. Besides, the EC50 (commonly the concentration that produces a half-maximal response) with Sindbis virus amounted to 1 µM.

`c1ccc(CCCC[C@@H]2COCCO2)cc1` returned a CC50 in data set [1] of 600 µM. This compound also yielded an EC50 in the data set with Sindbis virus of more than 100 µM.

`C(C[C@@H]1COCCO1)C[C@@H]1COCCO1` displayed a half-maximal cytotoxic concentration (CC50) in data set [1] of more than 1000 µM. In the data set with Sindbis virus, this compound gave a half-maximal effective concentration (EC50) of 40 µM.

For the compound `O=C(C[C@@H]1COCCO1)C[C@@H]1COCCO1`, the half-maximal cytotoxic concentration (CC50) in data set [1] is more than 1000 µM. This compound also returned an EC50 in the data set on Sindbis virus of more than 100 µM.

The record behind these values is ChEMBL document CHEMBL1139642, “Design, synthesis, and evaluation of dioxane-based antiviral agents targeted against the Sindbis virus capsid protein” (Bioorg Med Chem Lett, 2005).
